This is an account of results in publication PMC2855520, “Anti-infective activity of apolipoprotein domain derived peptides in vitro: identification of novel antimicrobial peptides related to apolipoprotein B with anti-HIV activity” (BMC Immunology, 2010).

Like-named read-outs stand apart in the source and are kept apart here. No end group written: not given here.

Data set [1] relates to HSV1.
For data set [2], the system named is Pseudomonas aeruginosa (ATCC 9027).
Procedure: (§1) A microdilution method was used [8]: paired dilutions of compounds in LB broth, arranged in 96-well plates were inoculated with around 1 × 10^5 CFU Pseudomonas aeruginosa (ATCC 9027) or Staphylococcus aureus (ATCC 6538P). After overnight incubation at 37C, absorbance at 620 nm (A620) was assessed, and the IC50 concentrations determined.
Data set [3] has as its system Staphylococcus aureus (ATCC 6538P).
Procedure: as §1
The test system of data set [4] is human red blood cells. Further details: method as in PMID 17681018. The following applies: cited from earlier work.
The next data set relates to TZMbl cells. Format: cell-based. How it is done: Cytotoxicity assessment - Vero cells growing in 96-well plates were treated with various peptide concentrations. After 48 h incubation, 25 μl 3-(4,5-dimethylthiazol-2-yl)-2,5-diphenyltetrazolium bromide (MTT) in 0.5% medium was added (1 mg/ml final concentration), and cells incubated for 2 h. Growth medium was then carefully removed and formazan crystals solubilised in […] of DMSO, prior to reading absorbance at 570 nm (A570). TZMbl cytotoxicity was assessed using the WST-1 cell proliferation reagent (Roche). Experiments were performed as for the anti-infectivity assay, WST-1 was diluted 1/10 into each well at various time points and cell proliferation was measured by absorbance at 450 nm.

Data set [5] relates to human red blood cells. The data set is classed as cell-based. How it is done:
Freshly washed human red blood cells were added to peptides diluted in PBS in 96-well plates (20 × 10^6 red blood cells were added per well). After 2 h incubation at 37°C, plates were centrifuged (3000 g, 5 min) and 80 μl of supernatant transferred to further 96-well plates containing 0.75% ammonium hydroxide in distilled water.

Data set [6] concerns HSV1. The following applies: earlier reports, organism not specified at this place; ref [9]; cited from earlier work. From the text:
In the second group of peptides, apoEdp - used as a positive control - was active against all three organisms, as found in our previous studies.

Where [7] appears, read: read-out: IC50 Concentration (μM) HSV1, plaque reduction assay, Vero cells, 90 PFU/well, peptide present 1 h, plaques counted after 2 d, averages for several experiments.
The mark [8] stands for this setting: read-out: IC50 Concentration (μM) P. aeruginosa, turbidity (A620) of serial dilutions in LB broth, ~1 × 10^5 CFU, overnight 37C, averages for several experiments.
Where [9] appears, read: read-out: IC50 Concentration (μM) S. aureus, turbidity (A620) of serial dilutions in LB broth, ~1 × 10^5 CFU, overnight 37C, averages for several experiments.

For ARLAEYHAKATEHLSTLSEKAK [apoA1-H8], the values for the IC50 (with HSV1 [1] (setting [7]); in data set [2] (setting [8]); in data set [3] (setting [9])) were greater than 40 µM, greater than 54 µM and greater than 54 µM, respectively.

CKNKEKKCCKNKEKKC [apoH(281-288)dp]: the IC50 in the data set with HSV1 [1] (setting [7]) was greater than 40 µM; in data set [2] (setting [8]), greater than 54 µM; in data set [3] (setting [9]) it was greater than 54 µM.

Consider “DWLKAFYDKVAEKLKEAF [apoA1-18A, reference compound]”, for which the IC50 in the data set on HSV1 [1] (read-out: IC50 concentration against HSV1, plaque reduction assay, 95%CI 31.9 - 41.1 μM) came out at 36.5 µM.

Turning to GERLRARMEGERLRARME [apoE(211-219)dp], the IC50 in the data set on HSV1 [1] (1 h) was greater than 40 µM; in data set [2] (setting [8]), greater than 54 µM; in data set [3] (setting [9]) it was greater than 54 µM.

For the substance HMLDVMQDHFSRASSIIDEL [apoJ151-170], the IC50 with HSV1 [1] (1 h) is greater than 40 µM; in data set [2] (setting [8]), greater than 54 µM; in data set [3] (setting [9]), greater than 54 µM.

Regarding KFMETVAEKALQEYRK [apoJ409-424], the IC50 was greater than 40 µM with HSV1 [1] (setting [7]), greater than 54 µM in data set [2] (setting [8]) and greater than 54 µM in data set [3] (setting [9]).

Consider LQVAERLTRKYNELLKSYQ [apoJ311-329], for which the results for the IC50 (in the data set with HSV1 [1] (setting [7]); in data set [2] (setting [8]); in data set [3] (setting [9])) were greater than 40 µM, greater than 54 µM and greater than 54 µM, respectively.

For the substance “LRKLRKRLLLRKLRKRLL-NH2 [apoE(141-149)dp, reference compound]”, the results for the IC50 (in the data set with HSV1 [1] (1 h); in data set [2] (ATCC 9027); in data set [3] (ATCC 6538)) were 16.5 µM, 2.5 µM and 9 µM, respectively. Also, in the data set on human red blood cells [4], the haemolytic activity entry was “non-haemolytic”.

For LRKLRKRLLRDADDLQKRLA [apoE141-162], the IC50 in the data set with HSV1 [1] (1 h) was greater than 40 µM; in data set [2] (setting [8]), greater than 54 µM; in data set [3] (setting [9]) it was greater than 54 µM.

Consider NFHAMFQPFLEMIHEAQQ [apoJ219-236], for which the IC50 with HSV1 [1] (setting [7]) was greater than 40 µM; in data set [2] (setting [8]), greater than 54 µM; in data set [3] (setting [9]) it was greater than 54 µM.

With PLGEEMRDRARAHVDALRTHLA [apoA1-H6], the values for the IC50 (with HSV1 [1] (setting [7]); in data set [2] (setting [8]); in data set [3] (setting [9])) were greater than 40 µM, greater than 54 µM and greater than 54 µM, respectively.

As for “PVLDEFREKLNEELEALKQKMK [apoA1-consensus]”, the results for the IC50 (in the data set on HSV1 [1] (setting [7]); in data set [2] (setting [8]); in data set [3] (setting [9])) were greater than 40 µM, greater than 54 µM and greater than 54 µM, respectively.

Take PYLDDFQKKWQEEMELYRQKVE [apoA1-H4]: the values for the IC50 (with HSV1 [1] (setting [7]); in data set [2] (setting [8]); in data set [3] (setting [9])) were greater than 40 µM, greater than 54 µM and greater than 54 µM, respectively.

PYSDELRQRLAARLEALKENGG [apoA1-H7]: the values for the IC50 (in the data set on HSV1 [1] (setting [7]); in data set [2] (setting [8]); in data set [3] (setting [9])) were greater than 40 µM, greater than 54 µM and greater than 54 µM, respectively.

With RALVDTLKFVTQAEGAK [apoB1000-1016], in the data set on HSV1 [1] (plaque reduction assay in Vero cells), the “antiviral activity against HSV1 (in words)” value was “inactive”. Also, the IC50 with HSV1 [1] (setting [7]) was greater than 40 µM; in data set [2] (setting [8]) it was greater than 54 µM; in data set [3] (setting [9]), greater than 54 µM.

As to RDADDLQKRRDADDLQKR [apoE(150-158)dp], the figures for the IC50 (in the data set with HSV1 [1] (1 h); in data set [2] (setting [8]); in data set [3] (setting [9])) were greater than 40 µM, greater than 54 µM and greater than 54 µM, respectively.

With RLRARMEEMRLRARMEEM [apoE(213-221)dp], the IC50 was greater than 40 µM in the data set with HSV1 [1] (1 h), greater than 54 µM in data set [2] (setting [8]) and greater than 54 µM in data set [3] (setting [9]).

For the substance RLTRKRGLKRLTRKRGLK [apoB(3359-3367)dp], the IC50 in the data set on HSV1 [1] (1 h) is greater than 40 µM; in data set [2] (setting [8]), greater than 54 µM; in data set [3] (setting [9]), greater than 54 µM.

As to VTDYGKDLMEKVKEWLNS [apoAII 18-30+], the IC50 in the data set with HSV1 [1] (setting [7]) was greater than 40 µM; in data set [2] (setting [8]) it was greater than 54 µM; in data set [3] (setting [9]), greater than 54 µM.

On to VTDYGKDLMEKVKSPELQ [apoAII 18-35], for which the IC50 in the data set with HSV1 [1] (setting [7]) was greater than 40 µM; in data set [2] (setting [8]) it was greater than 54 µM; in data set [3] (setting [9]) it was greater than 54 µM.

As to WRWRKRWRKWRWRKRWRK [apoBdpL/R-W], the “toxicity against TZMbl cells” value with TZMbl cells is on record as “no detectable toxicity”. The haemolytic activity entry in the data set with human red blood cells [5] was “non-haemolytic”.

Regarding “apoE(141-149): nonomer peptide of the apoE receptor binding region (LRKLRKRLL; UniProt P02649 159-167, looked up, fragment)”, the “anti-infective activity (in words)” value in the data set with HSV1 [6] was “inactive”.
